# Test results taken from patent publication US20240024273A1, “TOPICAL ADMINISTRATION OF 2-(DIETHYLAMINO)ETHYL 2-(4-ISOBUTYLPHENYL)PROPRIONATE FOR TREATMENT OF DISEASES” (TECHFIELDS PHARMA CO., LTD., priority 2020, published 2024).
# What was measured:
# [1] = Battery of nonclinical pharmacology and toxicology studies (overall); settings: in vivo
# Source text: A battery of pharmacology and toxicology studies including a GLP acute dermal maximum tolerated dose study in rats, a GLP acute dermal maximum tolerated dose study in Beagle dogs, a non-GLP 14-day repeated dermal dose toxicity study in rats, a non-GLP 14-day repeated dermal dose toxicity study in Beagle dogs, a 28-day GLP repeated dermal dose toxicity and toxicokinetics study in rats with 14-day recovery, a 28-day GLP repeated dermal dose toxicity and toxicokinetics study in Beagle dogs with 14-day recovery, a GLP bacterial reverse mutation assay (Ames), a GLP in vitro chromosome aberration assay in CHO-WBL Cells, a GLP in vivo bone marrow micronucleus assay in rats, a behavioral effects in rats using the functional observational battery, a rat respiratory safety pharmacology study, a cardiovascular telemetry study in the unrestrained conscious non-naïve dog, a skin irritation study in rabbits, a study on embryo-fetal development in rats, a 39-week GLP repeated dermal dose toxicity and toxicokinetics study in mini pigs with 4-week recovery, a 26-week GLP repeated dermal dose toxicity and toxicokinetics study in rats with 4-week recovery, a study on fertility and early embryonic development to implantation in rats, a study on embryo-fetal development in rabbits, and a sensitization test in guinea pigs were conducted.
# [2] = Acute maximum tolerated dose study, dermal; parameters: species or system Beagle dogs; settings: beagle, dog, in vivo, topical or ocular; dermal application
# [3] = system: Subjects with Mild to Moderate Osteoarthritis of the Knee; experiment: Phase 2 study: safety; type: in vivo, human
# Source text: Safety assessments will be performed at each visit and will include assessment of AEs, vital signs (blood pressure, pulse rate, and oral temperature), clinical laboratories, physical examination, skin irritation, and electrocardiograms (ECGs) as indicated in the study flow chart, Table 14.
# Safety assessments will include AEs, vital signs (blood pressures, pulse rate, and oral temperature), clinical laboratories, physical examination, skin irritation, and ECGs at various time points during the study as indicated in the study flow chart.
# Adverse events of interest include: local skin reactions around the treated knee(s), upper stomach pain, GI bleeding, serious cardiovascular side effects (e.g., thrombotic events, myocardial infarction, or stroke), jaundice, elevated liver function tests, and nausea.
# Safety analyses will be conducted on the SAS. Safety parameters will be listed and summarized using standard descriptive statistics, as appropriate. No formal statistical analyses are planned.
# mini pigs = experiment: 39-week GLP repeated dermal dose toxicity and toxicokinetics study with 4-week recovery; type: in vivo; settings: 5, 12.5 and 25 mg/kg dermal, 39 weeks
# [4] = system: Mild to Moderate Osteoarthritis of the Knee; experiment: Phase 2 study: subject's and physician's global assessment of response to therapy; type: in vivo, human
# Source text: 3.9.3. Exploratory Efficacy Endpoints: • 1. Subject's global assessment of disease status of the target knee at 2, 4, 8, and 12 weeks of treatment; • 2. Investigator's global assessment of disease status of the target knee at 2, 4, 8, and 12 weeks of treatment; • 3. Subject's global assessment of response to therapy of the target knee at 2, 4, 8, and 12 weeks of treatment; • 4. Investigator's global assessment of response to therapy of the target knee at 2, 4, 8, and 12 weeks of treatment; • 5. Change from Baseline over time in VAS pain scores for the target knee from Daily Diary data; • 6. Amount of rescue medication (acetaminophen) consumed per day for target knee pain.
# Data for the exploratory efficacy endpoints will be summarized using descriptive statistics.
# [5] = Phase 1 clinical study: plasma pharmacokinetics of prodrug and ibuprofen; type: in vivo, human; settings: steady-state, 70 mg
# [6] = Second Phase 2 study: plasma ibuprofen pharmacokinetics; type: in vivo, human; settings: low dose levels (below 35 mg/day)
# Experimental: All subjects enrolled at designated sites that have the capability to keep subjects overnight will be included in the PK subgroup until PK samples for 40 subjects per treatment group have been collected. […] At the Week 12/EOS visit, PK blood samples can be collected predose and at 2, 4, and 6 hours postdose. Subjects will only receive the morning dose at the Week 12/EOS visit.
# Thus only ibuprofen was analyzed in this trial.
# LPS induced fever = LPS induced fever model; type: in vivo, SD Rats; settings: 30 and 90 mg/kg; 4 and 6 hour time points
# [7] = pig, in vivo, topical or ocular, 9 mg/kg
# Sprague Dawley rats = experiment: Respiratory safety pharmacology study; type: in vivo; settings: single dermal dose 50, 250, 750 mg/kg
structure (smiles),measurement,setting,value
CCN(CC)CCOC(=O)C(C)c1ccc(CC(C)C)cc1 (stereo not shown) [2-(diethylamino)ethyl 2-(4-isobutylphenyl)propionate],overall safety,[1],appeared to be safe and were generally well tolerated
same,MTD,[2],≥ 50 mg/kg
same,safety and tolerability,"[3]; all three doses (8.75, 17.5, 35 mg/knee BID)",appeared to be safe and were generally well tolerated
same,gastrointestinal disorder incidences (very mild),[3]; whole study,12 incidences
same,skin irritation incidences,"[3]; whole study, total",8 incidences
same,local or systemic adverse effects,mini pigs,mini pigs with 4-week recovery was done and no test article-related local
same,Physician's global assessment of response to therapy: Excellent,[4]; 8.75 mg/knee (BID),11.1%
same,Physician's global assessment of response to therapy: fair,[4]; 8.75 mg/knee (BID),36.5%
same,Physician's global assessment of response to therapy: good,[4]; 8.75 mg/knee (BID),38.1%
same,Physician's global assessment of response to therapy: none,[4]; 8.75 mg/knee (BID),7.9%
same,Physician's global assessment of response to therapy: poor,[4]; 8.75 mg/knee (BID),6.3%
same,Physician's global assessment of response to therapy: total percentage of excellent and good,[4]; 8.75 mg/knee (BID),49.2%
same,Subject's global assessment of response to therapy: Excellent,[4]; 8.75 mg/knee (BID),7.8%
same,Subject's global assessment of response to therapy: fair,[4]; 8.75 mg/knee (BID),29.7%
same,Subject's global assessment of response to therapy: good,[4]; 8.75 mg/knee (BID),43.8%
same,Subject's global assessment of response to therapy: none,[4]; 8.75 mg/knee (BID),9.4%
same,Subject's global assessment of response to therapy: poor,[4]; 8.75 mg/knee (BID),9.4%
same,Subject's global assessment of response to therapy: total percentage of excellent and good,[4]; 8.75 mg/knee (BID),51.6%
same,Physician's global assessment of response to therapy: Excellent,[4]; 17.5 mg/knee (BID),23.2%
same,Physician's global assessment of response to therapy: fair,[4]; 17.5 mg/knee (BID),18.8%
same,Physician's global assessment of response to therapy: good,[4]; 17.5 mg/knee (BID),43.5%
same,Physician's global assessment of response to therapy: none,[4]; 17.5 mg/knee (BID),5.8%
same,Physician's global assessment of response to therapy: poor,[4]; 17.5 mg/knee (BID),8.7%
same,Physician's global assessment of response to therapy: total percentage of excellent and good,[4]; 17.5 mg/knee (BID),66.7%
same,Subject's global assessment of response to therapy: Excellent,[4]; 17.5 mg/knee (BID),20.3%
same,Subject's global assessment of response to therapy: fair,[4]; 17.5 mg/knee (BID),17.2%
same,Subject's global assessment of response to therapy: good,[4]; 17.5 mg/knee (BID),50.0%
same,Subject's global assessment of response to therapy: none,[4]; 17.5 mg/knee (BID),7.8%
same,Subject's global assessment of response to therapy: poor,[4]; 17.5 mg/knee (BID),4.7%
same,Subject's global assessment of response to therapy: total percentage of excellent and good,[4]; 17.5 mg/knee (BID),70.3%
same,Physician's global assessment of response to therapy: Excellent,[4]; 35 mg/knee (BID),18.8%
same,Physician's global assessment of response to therapy: fair,[4]; 35 mg/knee (BID),17.2%
same,Physician's global assessment of response to therapy: good,[4]; 35 mg/knee (BID),42.2%
same,Physician's global assessment of response to therapy: none,[4]; 35 mg/knee (BID),7.8%
same,Physician's global assessment of response to therapy: poor,[4]; 35 mg/knee (BID),14.1%
same,Physician's global assessment of response to therapy: total percentage of excellent and good,[4]; 35 mg/knee (BID),60.9%
same,Subject's global assessment of response to therapy: Excellent,[4]; 35 mg/knee (BID),18.0%
same,Subject's global assessment of response to therapy: fair,[4]; 35 mg/knee (BID),18.3%
same,Subject's global assessment of response to therapy: good,[4]; 35 mg/knee (BID),49.2%
same,Subject's global assessment of response to therapy: none,[4]; 35 mg/knee (BID),9.8%
same,Subject's global assessment of response to therapy: poor,[4]; 35 mg/knee (BID),4.9%
same,Subject's global assessment of response to therapy: total percentage of excellent and good,[4]; 35 mg/knee (BID),67.2%
same,relative bioavailability of spray vs topical application (plasma ibuprofen),[5],comparable at steady-state
same,detectability of prodrug in plasma,[6],cannot be detected in most of subjects' plasma
same,LPS induced fever,LPS induced fever,LPS induced fever was attenuated by middle (30 mg/kg) and high
same,cartilage AUClast,[7],23.91 µg·h/mL
same,muscle AUClast,[7],35.89 µg·h/mL
same,plasma AUClast,[7],1516 ng·h/mL
same,respiratory changes,Sprague Dawley rats,"250, and 750 mg/kg of ibuprofenamine were not associated with respiratory"
